Molecular target: T1, human glycine transporter-2 (GlyT2) (Homo sapiens, UniProt Q9Y345)
T1 construct: The entire coding region of the human GlyT2 cDNA was cloned into the mammalian expression vector pClNeo; expressed in transfected cells; host or cells: Cos-7 cells (African green monkey kidney, ATCC), stably transfected, G418-selected; vector pClNeo
T1 sequence (Q9Y345 1-797): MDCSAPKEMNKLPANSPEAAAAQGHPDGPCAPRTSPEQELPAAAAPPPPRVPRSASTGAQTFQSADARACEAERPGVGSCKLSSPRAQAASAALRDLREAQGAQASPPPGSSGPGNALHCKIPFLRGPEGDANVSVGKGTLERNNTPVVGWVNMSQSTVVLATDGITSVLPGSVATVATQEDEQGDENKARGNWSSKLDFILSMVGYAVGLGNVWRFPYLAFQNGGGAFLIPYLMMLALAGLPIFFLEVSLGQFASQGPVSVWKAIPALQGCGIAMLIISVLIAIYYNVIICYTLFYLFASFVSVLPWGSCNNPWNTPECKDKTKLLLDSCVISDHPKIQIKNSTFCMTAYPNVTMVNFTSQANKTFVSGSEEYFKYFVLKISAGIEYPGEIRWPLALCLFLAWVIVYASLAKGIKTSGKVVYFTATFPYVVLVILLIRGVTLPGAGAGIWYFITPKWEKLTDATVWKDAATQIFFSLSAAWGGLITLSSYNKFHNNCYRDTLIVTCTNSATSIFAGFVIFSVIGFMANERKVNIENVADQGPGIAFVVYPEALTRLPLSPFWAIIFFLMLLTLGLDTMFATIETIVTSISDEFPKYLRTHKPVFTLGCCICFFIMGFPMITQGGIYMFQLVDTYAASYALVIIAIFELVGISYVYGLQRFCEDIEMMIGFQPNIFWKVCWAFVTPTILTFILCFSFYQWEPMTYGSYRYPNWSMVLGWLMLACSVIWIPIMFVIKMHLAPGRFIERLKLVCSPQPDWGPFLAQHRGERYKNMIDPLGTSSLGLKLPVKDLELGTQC
Assay: Inhibition of [14C]-glycine uptake in COS-7 cells transfected with human GlyT2
Type: cell-based
Settings: Table 2, 20 μM, 2 h at 37° C., Cos-7 cells stably transfected with human GlyT2
Protocol: GlyT2 antagonist activity of representative compounds of the invention was determined in accordance with the assay described in the Examples and by measuring the ability of compounds to inhibit the uptake of [^14C]-glycine in COS-7 cells transfected with the human glycine transporter-2 (GlyT2). The GlyT2 antagonist activities of these representative compounds are set forth hereinafter in Table 1.
Cos-7 cells (African green monkey, kidney) from American Type Culture Collection were grown in DMEM supplemented with 10% fetal bovine serum. The entire coding region of the human GlyT2 cDNA was cloned into the mammalian expression vector pClNeo, and then stably transfected into Cos-7 cells. Transfection was performed essentially as described by T. W. Lovenberg et al. (Mol. Pharmacol. 1999, 55:1101–1107): Briefly, cells were grown to 70–80% confluence, removed from the plate with trypsin, and pelleted in a clinical centrifuge. The pellet was resuspended in 400 μL complete medium and transferred to an electroporation cuvette with a 0.4 cm gap between the electrodes (Bio-Rad, 165–2088). One microgram of supercoiled GlyT2 cDNA was added to the cells, and the suspension was mixed. The voltage for the electroporation was set at 0.25 kV, and the capacitance was set at 960 μF. After electroporation, the cuvette contents were diluted to 10 mL with complete medium, and 0.5 mL, 1.0 mL, 2.0 mL and remainder (˜6.5 mL) portions were plated onto four 10-cm dishes. The cells were incubated 24 h before adding 600 μg/mL G418. Colonies that survived selection were isolated and tested for GlyT2 expression.
The day before the assay, the GlyT2 expressing cells were plated into 96-well scintillating microplates (Amersham, RPNQ 0160) at a density of approximately 20,000 cells per well. Cells were grown overnight at 37° C. in 5% CO2 and then washed once with 37° C. HEPES buffered saline (HBS: 150 mM NaCl, 20 mM HEPES, 1 mM CaCl2, 10 mM glucose, 5 mM KCl, 1 mM MgCl2; pH 7.4). Eighty microliters of 37° C. HBS was subsequently added to each well. Test solutions of GlyT2 inhibitors were prepared in HBS from DMSO stock solutions, and 5 μL of test solution was added to each test well. Total transport and non-specific background were determined by adding 5 μL HBS or 5 μL 2 M glycine, respectively, to the appropriate control wells. Plates were then left at rt for 5 min before the addition of 20 μL of 100 μM ^14C-glycine (NEN, NEC 048H) to each well for a final concentration of 20 μM. Plates were incubated for 2 h at 37° C. with 5% CO2. After 2 h the reaction mixtures were removed by aspiration, and the plates were washed once with ice-cold HBS. Plates were sealed with TopSeal (Packard, 6005185) and counted on a Packard TopCount® scintillation counter.

O=C(Nc1cccc(Oc2ccccc2)c1)N[C@@H](Cc1ccccc1)C(=O)NCCCN1CCCC1 [Example 122, (S)-2-[3-(3-Phenoxy-phenyl)-ureido]-3-phenyl-N-(3-pyrrolidin-1-yl-propyl)-propionamide]
IC50: 440 nM

O=C(Nc1ccc(-c2ccccc2)cc1)N[C@@H](Cc1cccnc1)C(=O)NCCCN1CCCC1 [Example 142, (S)-2-(3-Biphenyl-4-yl-ureido)-3-pyridin-3-yl-N-(3-pyrrolidin-1-yl-propyl)-propionamide]
IC50: 685 nM

O=C(Nc1ccc(-c2ccccc2)cc1)NC(C(=O)NCCN1CCCC1)(c1ccccc1)c1ccccc1 [Example 143, 2-(3-Biphenyl-4-yl-ureido)-2,2-diphenyl-N-(2-pyrrolidin-1-yl-ethyl)-acetamide]
IC50: 8000 nM

CC(C)[C@@H](CC(=O)NCCN(C(C)C)C(C)C)NC(=O)Nc1ccc(-c2ccccc2)cc1 [Example 146, (R)-3-(3-Biphenyl-4-yl-ureido)-4-methyl-pentanoic Acid (2-diisopropylamino-ethyl)-amide]
IC50: 595 nM

O=C(Nc1cccc(-c2ccccc2)c1)N[C@@H](Cc1ccccc1)C(=O)NCCCN1CCCC1 [Example 150, (S)-2-(3-Biphenyl-3-yl-ureido)-3-phenyl-N-(3-pyrrolidin-1-yl-propyl)-propionamide]
IC50: 998 nM

NCCCNC(=O)/C=C/[C@H](Cc1ccccc1)NC(=O)Nc1ccc(-c2ccccc2)cc1 [Example 152, (E)-(S)-4-(3-Biphenyl-4-yl-ureido)-5-phenyl-pent-2-enoic Acid (3-amino-propyl)-amide]
IC50: 3160 nM

O=C(Nc1ccc(Oc2ccccc2)cc1)N[C@H](CNCCN1CCCC1)Cc1ccccc1 [Example 157, 1-[(S)-1-Benzyl-2-(2-pyrrolidin-1-yl-ethylamino)-ethyl]-3-(4-phenoxy-phenyl)-urea]
IC50: 181 nM

O=C(Nc1ccc(-c2ccccc2)cc1)N[C@@H](CCCNCCN1CCCC1)Cc1ccccc1 [Example 158, 1-[(S)-1-Benzyl-4-(2-pyrrolidin-1-yl-ethylamino)-butyl]-3-biphenyl-4-yl-urea]
IC50: 340 nM
